Results taken from ChEMBL document CHEMBL1123818, “Synthesis and biological activity of 5-(2,2-difluorovinyl)-2'-deoxyuridine” (1987).
In brackets after ≈: the same amount, converted by molar mass.

How the values were obtained:
Human alphaherpesvirus 1 [1] = assay: (§1) Compound was tested for antiviral activity against herpes simplex virus (thymidine kinase deficient herpes simplex virus ( HSV-1 (B2006) in primary rabbit kidney cells; assay type: functional, Oryctolagus cuniculus
FM3A [2] = assay: Compound was tested for antitumor activity against FM3A/TK- cells; assay type: functional; settings: Mus musculus
[3] = Compound was tested for antiviral activity against herpes simplex virus( HSV-2-196 strain in primary rabbit kidney cells; assay type: functional; settings: Oryctolagus cuniculus
[4] = Compound was tested for antitumor activity against HSV-1 TK gene transformed TK deficient FM3A cells; assay type: functional; settings: Mus musculus
L1210 = assay: Compound was tested for antitumor activity against L1210 cells; assay type: functional; settings: Mus musculus
Raji [5] = assay: Compound was tested for antitumor activity against thymidine kinase deficient human B-lymphoblast […] cells; assay type: functional
[6] = Compound was tested for antiviral activity against herpes simplex virus( HSV-2-G) strain in primary rabbit kidney cells; assay type: functional; settings: Oryctolagus cuniculus
[7] = Compound was tested for antiviral activity against herpes simplex virus( HSV-1-F) strain in primary rabbit kidney cells; assay type: functional; settings: Oryctolagus cuniculus
FM3A [8] = assay: Compound was tested for antitumor activity against FM3A/0 mammary carcinoma cells; assay type: functional; settings: Mus musculus
MOLT-4F = assay: Compound was tested for antitumor activity against human T-lymphoblast Molt/4F cells; assay type: functional
[9] = Compound was tested for antiviral activity against herpes simplex virus( HSV-2-lyons) strain in primary rabbit kidney cells; assay type: functional; settings: Oryctolagus cuniculus
[10] = Compound was tested for antiviral activity against herpes simplex virus( HSV-1-McIntyre) strain in primary rabbit kidney cells; assay type: functional; settings: Oryctolagus cuniculus
Raji [11] = assay: Compound was tested for antitumor activity against human B-lymphoblast Raji/0 cells; assay type: functional
[12] = Compound was tested for antiviral activity against […] Vassicular stomatitis in primary rabbit kidney cells; assay type: functional; settings: Oryctolagus cuniculus
Oryctolagus cuniculus = species on record: Oryctolagus cuniculus; assay: Compound was tested for antiviral activity against Vaccinia virus in primary rabbit kidney cells; assay type: functional
[13] = Compound was tested for antiviral activity against herpes simplex virus( HSV-1-KOS) strain in primary rabbit kidney cells; assay type: functional; settings: Oryctolagus cuniculus
Human alphaherpesvirus 1 [14] = assay: as §1; assay type: functional
[15] = Compound was tested for antiviral activity against herpes simplex virus (HSV-1-McIntyre) strain in primary rabbit kidney cells; assay type: functional; settings: Oryctolagus cuniculus
Human alphaherpesvirus 1 [16] = assay: Compound was tested for antiviral activity against herpes simplex virus (thymidine kinase deficient herpes simplex virus( HSV-1 (B2006) in primary rabbit kidney cells; assay type: functional, Oryctolagus cuniculus

Row | Compound | MIC50 (Human alphaherpesvirus 1 [1]) | MIC50 (FM3A [2]) | MIC50 [3] | MIC50 [4] | MIC50 (L1210) | MIC50 (Raji [5]) | MIC50 [6] | MIC50 [7] | MIC50 (FM3A [8]) | MIC50 (MOLT-4F) | MIC50 [9] | MIC50 [10] | MIC50 (Raji [11]) | MIC50 [12] | MIC50 (Oryctolagus cuniculus) | MIC50 [13] | MIC50 (Human alphaherpesvirus 1 [14]) | MIC50 [15] | MIC50 (Human alphaherpesvirus 1 [16])
1 | O=c1[nH]c(=O)n([C@H]2C[C@H](O)[C@@H](CO)O2)cc1C=C(Br)Br | > 150 µg/mL | > 100 µg/mL | 150 µg/mL (≈ 364 µM) | 7 µg/mL (≈ 17 µM) | > 100 µg/mL | > 100 µg/mL | 200 µg/mL (≈ 485 µM) | 70 µg/mL (≈ 170 µM) | > 100 µg/mL | > 100 µg/mL | 200 µg/mL (≈ 485 µM) | 20 µg/mL (≈ 48.5 µM) | > 100 µg/mL | > 400 µg/mL | 100 µg/mL (≈ 243 µM) | 20 µg/mL (≈ 48.5 µM) | – | – | –
2 | O=c1[nH]c(=O)n([C@@H]2C[C@H](O)[C@@H](CO)O2)cc1C=C(F)F | – | > 100 µg/mL | 100 µg/mL (≈ 345 µM) | > 100 µg/mL | > 100 µg/mL | > 100 µg/mL | 150 µg/mL (≈ 517 µM) | 20 µg/mL (≈ 68.9 µM) | > 100 µg/mL | > 100 µg/mL | 70 µg/mL (≈ 241 µM) | 20 µg/mL (≈ 68.9 µM) | > 100 µg/mL | > 200 µg/mL | – | 20 µg/mL (≈ 68.9 µM) | > 200 µg/mL | – | –
3 | O=c1[nH]c(=O)n([C@H]2C[C@H](O)[C@@H](CO)O2)cc1/C=C/Br [BRIVUDINE] | > 200 µg/mL | 0.4 µg/mL (≈ 1.2 µM) | 7 µg/mL (≈ 21 µM) | 0.0004 µg/mL (≈ 0.0012 µM) | 31 µg/mL (≈ 93.1 µM) | 78 µg/mL (≈ 234 µM) | 2 µg/mL (≈ 6 µM) | 0.02 µg/mL (≈ 0.06 µM) | 13 µg/mL (≈ 39 µM) | > 100 µg/mL | 7 µg/mL (≈ 21 µM) | 0.02 µg/mL (≈ 0.06 µM) | 29 µg/mL (≈ 87.1 µM) | > 200 µg/mL | 20 µg/mL (≈ 60 µM) | 0.02 µg/mL (≈ 0.06 µM) | – | – | –
4 | O=c1[nH]c(=O)n([C@H]2C[C@H](O)[C@@H](CO)O2)cc1I [IDOXURIDINE] | > 200 µg/mL | – | 3 µg/mL (≈ 8.47 µM) | – | – | – | 1.5 µg/mL (≈ 4.24 µM) | 0.2 µg/mL (≈ 0.565 µM) | – | – | 1.5 µg/mL (≈ 4.24 µM) | 0.3 µg/mL (≈ 0.847 µM) | – | > 200 µg/mL | 0.5 µg/mL (≈ 1.41 µM) | 0.15 µg/mL (≈ 0.424 µM) | – | – | –
5 | O=c1[nH]c(=O)n([C@H]2C[C@H](O)[C@@H](CO)O2)cc1C=C(F)F | > 200 µg/mL | > 100 µg/mL | 10 µg/mL (≈ 34.5 µM) | 0.25 µg/mL (≈ 0.861 µM) | 30 µg/mL (≈ 103 µM) | > 100 µg/mL | 6 µg/mL (≈ 20.7 µM) | 0.3 µg/mL (≈ 1.03 µM) | 55 µg/mL (≈ 190 µM) | 42 µg/mL (≈ 145 µM) | 3 µg/mL (≈ 10.3 µM) | 0.3 µg/mL (≈ 1.03 µM) | 33 µg/mL (≈ 114 µM) | > 200 µg/mL | 15 µg/mL (≈ 51.7 µM) | 0.2 µg/mL (≈ 0.689 µM) | – | – | –
6 | Oc1ncc(C=C(F)F)c(O)n1 | – | > 100 µg/mL | > 200 µg/mL | > 100 µg/mL | > 100 µg/mL | > 100 µg/mL | > 200 µg/mL | > 200 µg/mL | > 100 µg/mL | > 100 µg/mL | > 200 µg/mL | – | > 100 µg/mL | > 200 µg/mL | > 200 µg/mL | > 200 µg/mL | – | > 200 µg/mL | > 200 µg/mL
